pKi: −log10 of the molar value. Like-named read-outs stand apart in the source and are kept apart here.
Columns and labels:
[1] = target: human GABAA α5β2γ1 receptor (Homo sapiens (Human), UniProt P31644+Q8N1C3); test: Radioligand binding assay, competition for [3H]RO7239181, γ1-containing GABAA subtypes
[2] = target: human GABAA α1β3γ2 receptor (Homo sapiens (Human), UniProt P14867+P18507); test: Radioligand binding assay, competition for [3H]Flumazenil, γ2-containing GABAA subtypes; conditions: for γ2/γ1 Selectivity Ratio: Ki α1β3γ2 (nM)/Ki α2β2γ1 (nM); for LogSel: Log[Ki α1β3γ2 (nM)/Ki α2β2γ1 (nM)]
Outline: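 Competition against [3H]Flumazenil binding in HEK293F cells transiently expressing human α1β3γ2 receptors, pellets resuspended in mannitol buffer pH 7,2-7,4. Incubated to equilibrium 1 hour at 4° C, filtered and washed with ice-cold 50 mM Tris pH 7.5, bound radioactivity by liquid scintillation counting. Ki values are means of two determinations.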

[3] = target: human GABAA α2β2γ1 receptor (Homo sapiens (Human), UniProt P47869+Q8N1C3); test: Radioligand binding assay, competition for [3H]RO7239181, γ1-containing GABAA subtypes; conditions: Ki h-GABAA α2β2γ1, membranes of HEK293F cells, [3H]RO7239181 20-30 nM
[4] = HEK293F cells, [3H]Flumazenil 1 nM, Table 1, read-out: Ki h-GABAA α1β3γ2

Compound	pKi [1]	pKi [2, 4]	γ2/γ1 Selectivity Ratio ([2]; Table 1)	LogSel ([2]; Table 1)	pKi ([3]; Table 1)	pKi ([3]; Table 2)	pKi [2]
C[C@@H]1N=C(c2c(F)cccc2F)c2c(sc3c2COC[C@H](C)O3)-n2nc(C(=O)N3CC(OC(C)(C)C)C3)nc21 [Example 41, (3-tert-butoxyazetidin-1-yl)-[(7S,15S)-9-(2,6-difluorophenyl)-7,15-dimethyl-13,16-dioxa-18-thia-2,3,5,8-tetrazatetracyclo[8.8.0.02,6.011,17]octadeca-1(10),3,5,8,11(17)-pentaen-4-yl]methanone]	8.21	4.91	188.2	2.27	7.19	7.19	–
C[C@@H]1N=C(c2c(F)cccc2F)c2c(sc3c2COCCC3)-n2nc(C(=O)NCC3(O)CC3)nc21 [Example 62, (7S)-9-(2,6-difluorophenyl)-N-[(1-hydroxycyclopropyl)methyl]-7-methyl-13-oxa-18-thia-2,3,5,8-tetrazatetracyclo[8.8.0.02,6.011,17]octadeca-1(10),3,5,8,11(17)-pentaene-4-carboxamide]	8.23	5.31	200.3	2.30	7.61	7.61	–
C[C@@H]1N=C(c2c(F)cccc2F)c2c(sc3c2COCCO3)-n2c(C(F)F)nnc21 [Example 48, (7S)-3-(difluoromethyl)-9-(2,6-difluorophenyl)-7-methyl-13,16-dioxa-18-thia-2,4,5,8-tetrazatetracyclo[8.8.0.02,6.011,17]octadeca-1(10),3,5,8,11(17)-pentaene]	7.87	–	626.6	2.80	7.32	7.32	< 4.52
C[C@@H]1N=C(c2c(F)cccc2F)c2c(sc3c2COCCC3)-n2nc(C(=O)N[C@H]3C[C@H](O)C3)nc21 [Example 63, (7S)-9-(2,6-difluorophenyl)-N-(trans-3-hydroxycyclobutyl)-7-methyl-13-oxa-18-thia-2,3,5,8-tetrazatetracyclo[8.8.0.02,6.011,17]octadeca-1(10),3,5,8,11(17)-pentaene-4-carboxamide]	8.09	5.35	96.5	1.98	7.34	7.34	–
C[C@@H]1N=C(c2c(F)cccc2F)c2c(sc3c2COC[C@H](C)O3)-n2nc(C(=O)NCCO)nc21 [Example 53, (7S,15S)-9-(2,6-difluorophenyl)-N-(2-hydroxyethyl)-7,15-dimethyl-13,16-dioxa-18-thia-2,3,5,8-tetrazatetracyclo[8.8.0.02,6.011,17]octadeca-1(10),3,5,8,11(17)-pentaene-4-carboxamide]	8.21	4.94	119.7	2.08	7.02	7.02	–
C[C@@H]1N=C(c2c(F)cccc2F)c2c(sc3c2COCCO3)-n2nc(C(=O)N3CC(F)C3)nc21 [Example 24, (3-fluoroazetidin-1-yl)-[(7S)-9-(2,6-difluorophenyl)-7-methyl-13,16-dioxa-18-thia-2,3,5,8-tetrazatetracyclo[8.8.0.02,6.011,17]octadeca-1(10),3,5,8,11(17)-pentaen-4-yl]methanone]	8.90	5.59	691.7	2.84	8.43	8.42	–
Cc1nnc2n1-c1sc3c(c1C(c1c(F)cccc1F)=N[C@H]2C)CCC[C@H](F)C3 (single isomer, unassigned) [Example 17]	8.75	–	135.6	2.13	8.37	8.37	6.23
[2H]C1([2H])OCc2c(sc3c2C(c2c(F)cccc2F)=N[C@@H](C)c2nc(C(=O)N4CCC4)nn2-3)OC1([2H])[2H] [Example 23, azetidin-1-yl-[(7S)-14,14,15,15-tetradeuterio-9-(2,6-difluorophenyl)-7-methyl-13,16-dioxa-18-thia-2,3,5,8-tetrazatetracyclo[8.8.0.02,6.011,17]octadeca-1(10),3,5,8,11(17)-pentaen-4-yl]methanone]	8.60	5.07	1329.5	3.12	8.20	8.20	–
Cc1cn2c(nc1=O)[C@H](C)N=C(c1c(F)cccc1F)c1c-2sc2c1CCCCC2 [Example 26, (8S)-10-(2,6-difluorophenyl)-4,8-dimethyl-19-thia-2,6,9-triazatetracyclo[9.8.0.02,7.012,18]nonadeca-1(11),3,6,9,12(18)-pentaen-5-one]	8.42	–	188.9	2.28	7.49	7.49	5.22
Cc1nnc2n1-c1sc3c(c1C(c1c(F)cccc1F)=NC2)CCCCO3 [Example 18, 9-(2,6-difluorophenyl)-3-methyl-16-oxa-18-thia-2,4,5,8-tetrazatetracyclo[8.8.0.02,6.011,17]octadeca-1(10),3,5,8,11(17)-pentaene]	8.74	–	20.5	1.31	7.68	7.68	6.37
Cc1nnc2n1-c1sc3c(c1C(c1c(F)cccc1F)=N[C@H]2C)CCCCO3 [Example 19, (7S)-9-(2,6-difluorophenyl)-3,7-dimethyl-16-oxa-18-thia-2,4,5,8-tetrazatetracyclo[8.8.0.02,6.011,17]octadeca-1(10),3,5,8,11(17)-pentaene]	8.73	–	36.5	1.56	7.77	7.77	6.21
C[C@@H]1N=C(c2c(F)cccc2F)c2c(sc3c2CCCCC3)-n2c(-c3cccnn3)nnc21 [Example 4, (7S)-9-(2,6-difluorophenyl)-7-methyl-3-pyridazin-3-yl-18-thia-2,4,5,8-tetrazatetracyclo[8.8.0.02,6.011,17]octadeca-1(10),3,5,8,11(17)-pentaene]	8.06	–	94.6	1.98	7.32	7.32	5.34
C[C@@H]1N=C(c2c(F)cccc2F)c2c(sc3c2COCCO3)-n2nc(C(=O)NC[C@@](C)(O)C(F)(F)F)nc21 [Example 46, (7S)-9-(2,6-difluorophenyl)-7-methyl-N-[(2R)-3,3,3-trifluoro-2-hydroxy-2-methyl-propyl]-13,16-dioxa-18-thia-2,3,5,8-tetrazatetracyclo[8.8.0.02,6.011,17]octadeca-1(10),3,5,8,11(17)-pentaene-4-carboxamide]	8.45	5.36	284.3	2.45	7.82	7.82	–
C[C@@H]1N=C(c2c(F)cccc2F)c2c(sc3c2COCCO3)-n2nc(C(=O)NC[C@](C)(O)C(F)(F)F)nc21 [Example 47, (7S)-9-(2,6-difluorophenyl)-7-methyl-N-[(2S)-3,3,3-trifluoro-2-hydroxy-2-methyl-propyl]-13,16-dioxa-18-thia-2,3,5,8-tetrazatetracyclo[8.8.0.02,6.011,17]octadeca-1(10),3,5,8,11(17)-pentaene-4-carboxamide]	8.35	5.45	174.6	2.24	7.69	7.69	–
Cc1nnc2n1-c1sc3c(c1C(c1c(F)cccc1Cl)=N[C@H]2C)COCCC3 [Example 61, (7S)-9-(2-chloro-6-fluoro-phenyl)-3,7-dimethyl-13-oxa-18-thia-2,4,5,8-tetrazatetracyclo[8.8.0.02,6.011,17]octadeca-1(10),3,5,8,11(17)-pentaene]	8.30	–	122.4	2.09	7.69	7.69	5.60
CCOC1CN(C(=O)c2nc3n(n2)-c2sc4c(c2C(c2c(F)cccc2F)=N[C@H]3C)COCCO4)C1 [Example 31, [(7S)-9-(2,6-Difluorophenyl)-7-methyl-13,16-dioxa-18-thia-2,3,5,8-tetrazatetracyclo[8.8.0.02,6.011,17]octadeca-1(10),3,5,8,11(17)-pentaen-4-yl]-(3-ethoxyazetidin-1-yl)methanone]	8.62	5.34	818.0	2.91	8.26	8.25	–
C[C@@H]1N=C(c2c(F)cccc2F)c2c(sc3c2COCCC3)-n2nc(C(=O)N[C@H]3C[C@@H](O)C3)nc21 [Example 64, (7S)-9-(2,6-difluorophenyl)-N-(cis-3-hydroxycyclobutyl)-7-methyl-13-oxa-18-thia-2,3,5,8-tetrazatetracyclo[8.8.0.02,6.011,17]octadeca-1(10),3,5,8,11(17)-pentaene-4-carboxamide]	8.19	5.10	139.9	2.15	7.25	7.25	–
C[C@@H]1N=C(c2c(F)cccc2F)c2c(sc3c2COCCO3)-n2nc(C(=O)N3CCC3)nc21 [Example 22, azetidin-1-yl-[(7S)-9-(2,6-difluorophenyl)-7-methyl-13,16-dioxa-18-thia-2,3,5,8-tetrazatetracyclo[8.8.0.02,6.011,17]octadeca-1(10),3,5,8,11(17)-pentaen-4-yl]methanone]	8.95	5.52	304.3	2.48	8.00	8.00	–
